Measurements reported in patent US20210401918A1, “COMPOSITION COMPRISING COMBINATION OF RED CLOVER EXTRACT AND HOPS EXTRACT FOR IMPROVEMENT OF MENOPAUSAL DISORDER” (NATURETECH CO. LTD., priority 2018, published 2021).

System: MCF-7 cells
Assay: MCF-7 cells proliferation assay (MTS)
Format: cell-based, human
Experimental: MCF-7 cells (human breast cancer cells) were obtained from the Korea Cell Line Bank and used. RPMI (Gibco, USA) medium containing 10% FBS (Gibco, USA) and 1% penicillin-streptomycin (Gibco, USA) was used as cell culture medium, and cells were cultured in 5% CO2, 37° C. incubator. The medium was replaced every two days, and cells were sub-cultured every 4-5 days. HUVECs (human umbilical vein endothelial cells) were obtained from LONZA and used. M200 (Gibco, USA) containing LSGS kit (Gibco, USA) was used as cell culture medium, and only cells at passage 3-5 were used for the experiment.
Estrogen-free medium, which was prepared by diluting phenol red-free RPMI (Gibco, USA) with 5% dextran-coated charcoal-stripped FBS (TCB, USA) and 1% penicillin-streptomycin, was used for the experiment. After reacting cells in the estrogen-free medium for 3 days, they were seeded in a 96-well plate at a concentration of 1.5×10^4 cells/well and incubated in 5% CO2, 37° C. incubator for 24 hours, and then were treated with the sample so that the final DMSO concentration was 0.1%. E2 was used as the positive control, and ICI 182,780 (Sigma Chem. Co., USA) was used as the negative control. After 72 hours of sample treatment, MTS analysis was performed using CellTiter 96®Aqueous One Solution (Promega, Germany) reagent. Each well was treated with 20 μl of MTS reagent, reacted in 5% CO2, 37° C. incubator for 3 hours, and the absorbance was measured at 490 nm using a microplate reader.
In order to ascertain whether each sample acts on the estrogen receptor to show a cell proliferation effect, the sample was treated together with the estrogen receptor inhibit ICI 182,780, and the results are shown in Table 9.

| Compound | Proliferation (%) (Table 8, 1 nM, 72 hours, Control = 100) | Proliferation (%) with ICI 182,780 (Table 9, 1 nM, together with ICI 182,780) [%] | Proliferation (%) without ICI 182,780 (Table 9, 1 nM, without ICI 182,780) [%] | Proliferation (%) with ICI 182,780 (Table 9, Control (sample 0 μg/ml) with ICI 182,780 alone) [%] |
| --- | --- | --- | --- | --- |
| C[C@]12CC[C@@H]3c4ccc(O)cc4CC[C@H]3[C@@H]1CC[C@@H]2O [Estradiol, 17β-estradiol] | 135.78 ± 2.83 | 92.27 ± 2.04 | 143.39 ± 10.46 |  |
| C[C@]12CC[C@@H]3c4ccc(O)cc4C[C@@H](CCCCCCCCC[S+]([O-])CCCC(F)(F)C(F)(F)F)[C@H]3[C@@H]1CC[C@@H]2O (stereo partly shown) [ICI 182,780] |  |  |  | 86.55 ± 1.95 |
